Assay results published in patent US8852876B2, “Label free biosensors and cells” (Corning Incorporated, priority 2008, dated 2014).

Tests used:
[1] = tested on: endogenous GPCRs in A431 cells; assay: DMR optical biosensor profiling of GPCR agonists; assay type: cell-based, human; conditions: quiescent A431; first class = Gq-type, second = Gs-type, third = Gi-type, fourth = no significant DMR
Description: Human epidermoid carcinoma A431 cells (American Type Cell Culture) were grown in Dulbecco's modified Eagle's medium (DMEM) supplemented with 10% fetal bovine serum (FBS), 4.5 g/liter glucose, 2 mM glutamine, and antibiotics. ˜3-7.5×10^4 cells at passage 3 to 5 suspended in 200 μl the DMEM medium containing 10% FBS were placed in each well of a 96 well microplate. Similarly ˜1-2×10^4 cells in 50 μl the growth medium were placed in each well of a 384 well microplate. After cell seeding, the cells were cultured at 37° C. under air/5% CO2 until ˜95% confluency was reached (˜2-4 days).
A Corning® Epic™ angular interrogation system with transverse magnetic or p-polarized TM0 mode was used for all studies. Several extra actions were taken to minimize the unwanted effects. First, to minimize the bulk index changes when a compound solution is introduced, 1×HBSS buffer without any probenecid was used to dilute all the compounds, whereas the DMEM buffer only was used to starve the cells. Secondly, to facilitate the cell responses as well as to rapidly reach a steady state when the sensor plates having cells were placed in the system at room temperature, the cells were pre-starved with the DMEM buffer without any FBS for a prolonged period of time (typically 20±2 hours), and the quiescent cells were directly used for assays without any wash.
For kinetics measurements, the cultured cells (˜95% confluency) were starved for about 20 hours with DMEM alone at 37° C. under air/5% CO2. Afterwards, the sensor microplate containing cells was placed into the optical system, and the cell responses were recorded before and after addition of a solution at room temperature. […] All studies were carried out at room temperature with the lid of the microplate on except for a short period of time (˜seconds) when the solution was introduced, in order to minimize the effect of temperature fluctuation and evaporative cooling. The unit of the responses indicated herein was a change in pixel of the central position of the resonant band of each sensor as imaged by a CCD camera; 1 unit equals to ˜5.82×10^−4 refractive index changes, based on an experimental normalization protocol, which uses the concentration-dependent responses of both glycerol and dimethyl sulfoxide.
The panel of agonists were used individually to stimulate quiescent A431 cells. The dose-dependent and kinetic responses were recorded and analyzed. In a typical kinetic measurement, the angular shift of resonant lights of each sensor induced by an agonist is monitored in real time and plotted as a function of time. An increased signal (P-DMR) means an increase in the amount of bio-molecules within the sensing volume (˜120 nm); conversely, a decreased signal (N-DMR) means a decrease in the amount of bio-molecules within the sensing volume. The sensing volume, also known as penetration depth, is an intrinsic property of the coupled light within the waveguide film, which creates an evanescent wave extending into the cell layer and the medium.

[2] = molecular target: T1, protease activated receptors PAR1 and PAR2 (Homo sapiens, UniProt P25116); assay type: cell-based; conditions: quiescent A431; n=3
T1 construct: A431 cells which endogenously express PAR1 and PAR2; endogenous in cells; host or cells: A431
T1 sequence (P25116 22-425): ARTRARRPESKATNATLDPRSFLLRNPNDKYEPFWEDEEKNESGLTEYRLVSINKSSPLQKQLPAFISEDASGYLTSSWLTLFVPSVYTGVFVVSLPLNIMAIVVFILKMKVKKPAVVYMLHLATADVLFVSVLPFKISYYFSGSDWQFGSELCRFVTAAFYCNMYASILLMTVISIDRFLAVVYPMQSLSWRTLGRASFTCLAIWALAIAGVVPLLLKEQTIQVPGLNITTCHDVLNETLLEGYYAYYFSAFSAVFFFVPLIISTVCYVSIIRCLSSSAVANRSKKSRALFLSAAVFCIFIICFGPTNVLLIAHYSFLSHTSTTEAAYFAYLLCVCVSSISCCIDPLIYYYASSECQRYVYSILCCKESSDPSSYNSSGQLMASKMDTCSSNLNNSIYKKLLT
How it was run: (§1)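 A431 cells at passage 3-5 grown in DMEM/10% FBS at 37° C, 5% CO2 to ~95% confluency (~2-4 days). Compounds and PAR agonists prepared in 1×HBSS to match the refractive index of the cell medium for dynamic mass redistribution (DMR) read-out.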

[3] = tested on: protease activated receptors PAR1 and PAR2; assay type: cell-based, human; conditions: interval about 1 hour
How it was run: as §1

[4] = tested on: actin filaments in A431 cells; assay: Texas Red-phalloidin fluorescence imaging; assay type: cell-based, human; conditions: 100 nM trypsin or 40 unit/ml thrombin; ~95% confluency
Description: Cells were grown on Corning® Epic™ 96 well biosensor microplates, starved for overnight with serum-free DMEM medium, chased with either trypsin or thrombin for certain time, fixed with 4% paraformaldehyde, permeabilized in phosphate-buffered saline (PBS) containing 0.2% Triton, and blocked with 1% bovine serum albumin (BSA). Afterwards, cells were incubated with 0.5 μM Texas Red-labeled phalloidin for 1 h at room temperature, and washed. After final washes and mounting, cells were examined with a 40× objective, equipped in a Zeiss Axioplan fluorescence microscope.

[5] = molecular target: T2, PAR1 receptor (Cricetulus griseus, UniProt A0A8C2QJ57); assay: Endpoint wavelength-shift measurement, 384 well biosensor plate; assay type: cell-based, Chinese hamster; conditions: CHO cells; 5 minutes after addition
T2 construct: The PAR1 receptor is endogenously expressed in CHO cells; endogenous in cells; host or cells: CHO
T2 sequence (A0A8C2QJ57 22-428): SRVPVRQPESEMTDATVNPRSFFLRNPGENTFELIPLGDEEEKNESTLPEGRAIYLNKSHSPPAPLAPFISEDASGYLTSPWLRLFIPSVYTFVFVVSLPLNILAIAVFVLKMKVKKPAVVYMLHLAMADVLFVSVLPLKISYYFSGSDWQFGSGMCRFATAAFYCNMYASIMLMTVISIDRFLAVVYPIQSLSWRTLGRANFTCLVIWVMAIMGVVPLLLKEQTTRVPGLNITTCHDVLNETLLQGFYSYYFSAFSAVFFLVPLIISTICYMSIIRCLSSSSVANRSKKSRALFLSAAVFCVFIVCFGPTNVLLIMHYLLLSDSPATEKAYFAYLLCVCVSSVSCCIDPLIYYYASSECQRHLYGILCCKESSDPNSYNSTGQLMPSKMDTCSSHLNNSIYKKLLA
Description: The two time points were right before the compound addition (the baseline point), and 5 minutes after the compound addition (the measured point). The difference between two endpoints reflects the total amplitude of the P-DMR event mediated by thrombin—a PAR1 receptor agonist. Here a different cell line—CHO cells was used. The PAR1 receptor is endogenously expressed in CHO cells. The cells become partially quiescent by culturing the cells in the DMEM medium for 4 hours before the thrombin stimulation. In this example, a 384 well Coring Epic biosensor plate was used. Each well contains CHO cells with a confluency of ˜90%. Half of the wells were treated with thrombin at 40 unit/ml, whereas other half of the wells were treated with the buffer HBSS only. Since the agonist-induced activation of both B2 in A431 and PAR1 in CHO cells leads to Gq signaling, the significance of this assay results is that the Gq-type optical signature is at least universal in both cell lines. By using similar endpoint measurements, one is able to screen GPCR modulators against different endogenous targets in different cells.
The two time points were right before the compound addition (the baseline point), and 5 minutes after the compound addition (the measured point). The CHO cells were treated with thrombin at different doses. […]

[6] = tested on: protease activated receptors PAR1 and PAR2; assay: Fluo-3 Ca2+ mobilization assay with PAR agonists; assay type: cell-based, human
How it was run: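 A431 cells (passage 3–5), serum-starved overnight, loaded with 4 μM Fluo-3 for 1 h in HBSS/20 mM HEPES pH 7.0 with 2.5 mM probenecid. PAR agonist added and calcium fluorescence recorded over 6 min at 6 s intervals, room temperature.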

Apparent EC50 (P-DMR amplitude, Gq-type) [2]: 9.6±2.0 unit/ml | Apparent EC50 (endpoint wavelength shift) [5]: 12.5 unit/ml | Concentration required to induce a maximal response ([6]; [Ca2+]i): 40 unit/ml | EC50 of [Ca2+]i increase ([6]; quiescent A431, Fluo-3): 6±1 unit/ml | Maximal [Ca2+]i elevation ([6]; quiescent A431, Fluo-3): 48.2±3.5% | EC50 ([6]; quiescent A431, Fluo-3, converted from unit/ml, read-out: EC50 of [Ca2+]i increase, equivalent): 60 ± 10 nM
Substance: thrombin
Class of optical signature (DMR) induced by agonist [1]: first class of optical signatures | Effect of preceding stimulation on trypsin-induced DMR signal [3]: significantly suppresses but not completely eliminates the trypsin-induced DMR signal | Reorganization of actin filaments [4]: triggered significant cytoskeletal reorganization after about 10 min | Effect of preceding stimulation on thrombin-mediated [Ca2+]i elevation ([6]; 40 unit/ml thrombin twice): totally blocked the [Ca^2+]i elevation mediated by 40 unit/ml thrombin | Effect of preceding stimulation on trypsin-induced [Ca2+]i elevation ([6]; interval 6 min, 200 nM trypsin): slightly suppressed the trypsin-induced [Ca^2+]i elevation
